Data set [1] in a line: Pharmacokinetic (PK) data from intravenous (IV) administration of DHM, blood samples analysed by LC-MS/MS. In kind it is in vivo, Sprague-Dawley rats. The conditions noted are these: Sprague-Dawley, rat, 1 mg/kg. The method, then: The DUNHM was administered in an 0.9% saline solution. No sodium caprate (sodium decanoate, Na caprate) was administered.
A short description of data set [2]: Pharmacokinetic (PK) data from oral administration of DHM in enteric capsules, with or without sodium caprate. It is filed as in vivo, Sprague-Dawley rats. Conditions: Sprague-Dawley, rat, blood; for Tmax / AUC / Cmax: po; for AUC: DHM AUC; for Cmax: DHM Cmax.
The conditions of data set [3]: background statement, ref. [31]; cited from earlier work.
Data set [4] can be described thus: in vivo. The conditions noted are these: Sprague-Dawley, rat, 1.3 mg/kg.
Description: A pharmacokinetic study can be carried out to evaluate animal pharmacokinetics.
A blood sample was collected from each rat at predetermined times and analyzed with LC-MS/MS. […] Error bars for each point in time based on the results for each of the rats in the set are shown. […] Bioavailability (Fabs) was calculated as
where AUCoral and Doral indicate the AUC and dosage for a given oral administration, and AUCIV and Div indicate the AUC and dosage for the intravenous (IV) administration set forth in Example 1, above.
Error bars for each point in time based on the results for each of the rats in the set are shown.
The mark [5] stands for this setting: 1.1 mg/kg, 73.1±1.1 mg/kg crystalline DHM, enteric capsules (Eudragit L100-55 coated), Na caprate:DHM 0:1, FIG. 3A.
[6] abbreviates: 70.6±2.7 mg/kg crystalline DHM, enteric capsules, sodium caprate approx. 141.2 mg/kg (2:1), FIG. 3D.
The mark [7] stands for this setting: 75.5±2.0 mg/kg crystalline DHM, enteric capsules, sodium caprate approx. 75.5 mg/kg (1:1), FIG. 3C.
Where [8] appears, read: 92.6±3.0 mg/kg crystalline DHM, enteric capsules, sodium caprate approx. 23.2 mg/kg (1:4), FIG. 3B.

SMILES strings stand for the structures.

In general, AUC refers to the area under the concentration-time curve, a measure of exposure. Low values mean less exposure, high ones more exposure. What is called Cmax is the peak of the concentration-time curve. By bioavailability is commonly meant the share of a dose that reaches the circulation, judged against a reference dose that is usually intravenous. A low value points to little systemic uptake. The term Tmax denotes the time at which the peak concentration occurs. Take `O=C1c2c(O)cc(O)cc2O[C@H](c2cc(O)c(O)c(O)c2)[C@H]1O` [DHM, dihydromyricetin]: the AUC is 11.6 ± 4.9 ng·h/mL in data set [1]; 167 ± 83.3 ng·h/mL in data set [2] (setting [5]); 431 ± 101 ng·h/mL in data set [2] (setting [6]); 284 ± 20.1 ng·h/mL in data set [2] (setting [7]); 222 ± 44.3 ng·h/mL in data set [2] (setting [8]); 314 ± 115 ng·h/mL in data set [4] (po, DHM AUC). Further, the Cmax is 12.5 ± 0.5 ng/mL in data set [1]; 27.9 ± 1.5 ng/mL in data set [2] (setting [5]); 70.2 ± 6.5 ng/mL in data set [2] (setting [6]); 62.3 ± 4.3 ng/mL in data set [2] (setting [7]); 52.7 ± 3.6 ng/mL in data set [2] (setting [8]); 46.2 ± 4 ng/mL in data set [4] (po, DHM Cmax). The bioavailability in data set [2] (1.1 mg/kg) turned out to be 19.5 ± 9.5%; in data set [4] (DHM Bioavailability (Fabs)), 34.1 ± 12.7%. Further, the Tmax in data set [2] (setting [5]) was found to be 5.4 ± 2.6 h; in data set [2] (setting [6]), 4 h; in data set [2] (setting [7]) it was 4 h; in data set [2] (setting [8]), 6 h; in data set [4] (po, Tmax), 4.7 ± 1.8 h. Moreover, the oral bioavailability entry in data set [3] is on record as “less than 5%”.

These data come from patent US20260263413A1 (priority 2019, published 2026).
